Data reported in patent publication US20080194673A1, “Environment-Friendly Pollution-Proof Agent” (priority 2004, published 2008).
In brackets after ≈: the same amount, converted by molar mass.

Columns and labels:
[1] = system: spores of Ulva pertusa; test: inhibitory effect test against the mobility of the spores of Ulva pertusa (Example 2 fractions); type: cell-based
Method: The effects of the fractions I-VI on the inhibition of attachment of fouling organisms were tested on Ulva pertusa, one of typical fouling algae. Ulva pertusa was collected in Kyongpodae, Kangnung-city, Kangwon-Do, Korea. The collected seaweed was transported to a laboratory in which only Ulva pertusa was screened. In order to remove fouling organisms, the screened algae were treated three times with supersonic waves for 1 minute for each time, and then washed clean with sterilized seawater. The washed algae were simply sterilized by immersion in a mixed solution of 1% betadine and 2% trition X-100 for 1 minute, followed by semi-drying. The semi-dried Ulva pertusa was added to sterilized seawater and placed in a 80 μmol m^−2s^−, 20° C. incubator to induce the release of spores.
10 μl of dimethyl sulfoxide (DMSO) was placed in a prepared tube, to which the seawater having spores released therein was then added. […] Before inoculation with each fraction at each dilution concentration, the movement of spores in the seawater was examined and the result was used as a comparison with a control group.

[2] = in vivo
Method: Methyl stearate is an opaque white-colored crystal and has the following physical properties: a melting point of 40-42° C., and a boiling point of 181-182° C.

[3] = system: mice; test: safety test, single administration to mice, observed for 7 days; type: in vivo, mouse; conditions: 10 mg/kg, 10 mice per group
Method: Each of hexadecane, octadecane, eicosane, 1-eicosanol, 1-pentadecanol, dibutyl phthalate, dioctyl phthalate, diisononyl phthalate, dicyclohexyl phthalate, and 6-formyl-3,4-dehydro-2,8-dimethyl-2-(3′,6′-dienyl-8′-hydroxy-4′-methylnonane)-2H-1-benzopyrane is dissolved in dimethylsulfoxide (DMSO) and diluted with water.

[4] = oral toxicity of methyl palmitate in mice; conditions: mouse, in vivo, administered orally to mice
[5] = system: eyes of rabbits; conditions: rabbit, in vivo
[6] = system: human body; conditions: in vivo
[7] = fish toxicity against water; conditions: Blugil fish (a kind of trout), in vivo, other: exposure in water
Method: The physical properties of methyl palmitate are as follows: a melting point of 32-34° C., a boiling point of 163-164° C., and a density of 0.852. […] Blugil fish which is a kind of trout was tested for toxicity against water, the result was as follows: LC50=1000 ml/l.

[8] = system: Enteromorpha spores; test: inhibitory activity test against the mobility of Enteromorpha spores (Sargassum confusum fractions, Tables 5-8); type: cell-based
[9] = system: Aspergillus niger; test: minimum inhibitory concentration (MIC) by two-fold serial dilution in nutrient broth; type: cell-based; conditions: 30° C., 48 hours
Source text: (§1) A liquid medium obtained by diluting PAGS by two-fold serial dilution was placed on a 96-multiwell plate and inoculated with 10^4 cfu/ml of microorganisms. […] The liquid medium used in the test was a nutrient broth (Difco).

[10] = system: Staphylococcus aureus; test: as above; type: cell-based; conditions: 30° C., 48 hours
Source text: as §1

[11] = ratio 1:0 (not explained; test of PAGS)
[12] = ratio 3:1 (not explained; test of PAGS)

Row | Molecule | Mobility inhibitory activity ([1]; 125 μg/ml) | Mobility inhibitory activity ([1]; 250 μg/ml) | Mobility inhibitory activity ([1]; 500 μg/ml) | Mobility inhibitory activity ([1]; 1,000 μg/ml) | Mobility inhibitory activity ([1]; 2,000 μg/ml) | Mobility inhibitory activity ([1]; 4,000 μg/ml) | death of the mice [3] | other results
1 | CCCCCCCCCCCCCCCCCCCC [B] | ++++ (more than 95% inhibition of the mobility of spores) | ++++ (more than 95% inhibition of the mobility of spores) | ++++ (more than 95% inhibition of the mobility of spores) | ++++ (more than 95% inhibition of the mobility of spores) | ++++ (more than 95% inhibition of the mobility of spores) | ++++ (more than 95% inhibition of the mobility of spores) |  | 
2 | CCCCOC(=O)c1ccccc1C(=O)OCCCC [E] | ++++ (more than 95% inhibition of the mobility of spores) | ++++ (more than 95% inhibition of the mobility of spores) | ++++ (more than 95% inhibition of the mobility of spores) | ++++ (more than 95% inhibition of the mobility of spores) | ++++ (more than 95% inhibition of the mobility of spores) | ++++ (more than 95% inhibition of the mobility of spores) |  | 
3 | CCCCCCCCCCCCCCCCCC(=O)OC [methyl stearate] |  |  |  |  |  |  |  | LD50 ([2]; in vivo, species and route not given): > 17200 mg/kg; stimulus ([2]; suction, intake, epidermal absorption): gives no stimulus
4 | O=C(OC1CCCCC1)c1ccccc1C(=O)OC1CCCCC1 [dicyclohexyl phthalate] |  |  |  |  |  |  | no death | 
5 | CCCCCCCCCCCCCCCO [1-pentadecanol] |  |  |  |  |  |  | no death | 
6 | CCCCCCCCOC(=O)c1ccccc1C(=O)OCCCCCCCC [F] | ++++ (more than 95% inhibition of the mobility of spores) | ++++ (more than 95% inhibition of the mobility of spores) | ++++ (more than 95% inhibition of the mobility of spores) | ++++ (more than 95% inhibition of the mobility of spores) | ++++ (more than 95% inhibition of the mobility of spores) | ++++ (more than 95% inhibition of the mobility of spores) |  | 
7 | CCCCCCCCCCCCCCCCCCCCO [C] | ++++ (more than 95% inhibition of the mobility of spores) | ++++ (more than 95% inhibition of the mobility of spores) | ++++ (more than 95% inhibition of the mobility of spores) | ++++ (more than 95% inhibition of the mobility of spores) | ++++ (more than 95% inhibition of the mobility of spores) | ++++ (more than 95% inhibition of the mobility of spores) |  | 
8 | CCCCOC(=O)c1ccccc1C(=O)OCCCC [dibutyl phthalate] |  |  |  |  |  |  | no death | 
9 | CCCCCCCCCCCCCCCC(=O)OC [methyl palmitate] |  |  |  |  |  |  |  | LD50 [4]: > 20000 mg/kg; stimulus to eyes [5]: only a transient stimulus phenomenon occurred; stimulus to skin [6]: only a very mild stimulus remained; LC50 [7]: 1000 µg/mL (≈ 3.7 mM)
10 | CC(C)CCCCCCOC(=O)c1ccccc1C(=O)OCCCCCCC(C)C [G] | ++++ (more than 95% inhibition of the mobility of spores) | ++++ (more than 95% inhibition of the mobility of spores) | ++++ (more than 95% inhibition of the mobility of spores) | ++++ (more than 95% inhibition of the mobility of spores) | ++++ (more than 95% inhibition of the mobility of spores) | ++++ (more than 95% inhibition of the mobility of spores) |  | 
11 | CCCCCCCCCCCCCCCO [D] | ++++ (more than 95% inhibition of the mobility of spores) | ++++ (more than 95% inhibition of the mobility of spores) | ++++ (more than 95% inhibition of the mobility of spores) | ++++ (more than 95% inhibition of the mobility of spores) | ++++ (more than 95% inhibition of the mobility of spores) | ++++ (more than 95% inhibition of the mobility of spores) |  | 
12 | O=C(OC1CCCCC1)c1ccccc1C(=O)OC1CCCCC1 [H] | ++++ (more than 95% inhibition of the mobility of spores) | ++++ (more than 95% inhibition of the mobility of spores) | ++++ (more than 95% inhibition of the mobility of spores) | ++++ (more than 95% inhibition of the mobility of spores) | ++++ (more than 95% inhibition of the mobility of spores) | ++++ (more than 95% inhibition of the mobility of spores) |  | 
13 | CCCCCCCCCCCCCCCCCCCC (single isomer, unassigned) [eicosane] |  |  |  |  |  |  | no death | 
14 | CCCCCCCCCCCCCCCC [hexadecane] |  |  |  |  |  |  | no death | 
15 | CCCCCCCCOC(=O)c1ccccc1C(=O)OCCCCCCCC [dioctyl phthalate] |  |  |  |  |  |  | no death | 
16 | CC(C)CCCCCCOC(=O)c1ccccc1C(=O)OCCCCCCC(C)C [diisononyl phthalate] |  |  |  |  |  |  | no death | 
17 | CCCCCCCCCCCCCCCCCCCCO [Example 1-eicosanol, 1-eicosanol] |  |  |  |  |  |  | no death | 
18 | CCCCCCCCCCCCCCCCCC [octadecane] |  |  |  |  |  |  | no death | 
19 | 6-formyl-3,4-dehydro-2,8-dimethyl-2-(3′,6′-dienyl-8′-hydroxy-4′-methylnonane)-2H-1-benzopyrane |  |  |  |  |  |  | no death | Activity (inhibition of the mobility of spores) ([8]; 125 μg/ml): ++++ (more than 95% inhibition of the mobility of spores); Activity (inhibition of the mobility of spores) ([8]; 250 μg/ml): ++++ (more than 95% inhibition of the mobility of spores); Activity (inhibition of the mobility of spores) ([8]; 500 μg/ml): ++++ (more than 95% inhibition of the mobility of spores); Activity (inhibition of the mobility of spores) ([8]; 1,000 μg/ml): ++++ (more than 95% inhibition of the mobility of spores); Activity (inhibition of the mobility of spores) ([8]; 2,000 μg/ml): ++++ (more than 95% inhibition of the mobility of spores); Activity (inhibition of the mobility of spores) ([8]; 4,000 μg/ml): ++++ (more than 95% inhibition of the mobility of spores); MIC Aspergillus niger 1:0 [9, 11]: 10; MIC Aspergillus niger 3:1 [9, 12]: 2; MIC Staphylococcus aureus 1:0 [10, 11]: 4; MIC Staphylococcus aureus 3:1 [10, 12]: 1
